Laboratory results: ChEMBL document CHEMBL3046306, “Synthesis of new compounds derived from metronidazole and amino acids and their esters as antiparasitic agents” (Med Chem Res, 2012)

Legend:
[1] = Cytotoxicity against Homo sapiens (human) Hep2 cells assessed as concentration at which cell growth as in negative control after 48 hr by hemocytometer; assay type: cell-based; settings: HEp-2 cells, read-out: Activity
[2] = Cytotoxicity against Chlorocebus aethiops (African green monkey) Vero cells assessed as concentration at which cell growth as in negative control after 48 hr by hemocytometer; assay type: cell-based; settings: chlorocebus sabaeus, read-out: Activity
Giardia intestinalis = test: Antiparasitic activity against Giardia intestinalis WB strain ATCC 30957 using trypan blue staining by hemocytometer; assay type: functional, organism-based; settings: Giardia duodenalis
Entamoeba histolytica = test: Antiparasitic activity against Entamoeba histolytica HK-9 strain ATCC 30015 using trypan blue staining by hemocytometer; assay type: functional, organism-based

SMILES	MNTC at 48 h [1]	MNTC at 48 h [2]	IC50 (Giardia intestinalis)	IC50 (Entamoeba histolytica)
COC(=O)[C@H](CC(=O)O)NC(=O)Cn1c([N+](=O)[O-])cnc1C	304 µM	314 µM	2.26 µM	2.21 µM
COC(=O)[C@H](Cc1ccc(O)cc1)NC(=O)Cn1c([N+](=O)[O-])cnc1C			17.8 µM	18.3 µM
COC(=O)[C@H](Cc1c[nH]c2ccccc12)NC(=O)Cn1c([N+](=O)[O-])cnc1C			16.6 µM	8.29 µM
COC(=O)[C@H](Cc1cnc[nH]1)NC(=O)Cn1c([N+](=O)[O-])cnc1C			8.93 µM	8.91 µM
COC(=O)[C@@H]1CCCN1C(=O)Cn1c([N+](=O)[O-])cnc1C	169 µM	204 µM	2.7 µM	2.54 µM
CCOC(=O)C(CCCCNC(=O)Cn1c([N+](=O)[O-])cnc1C)NC(=O)Cn1c([N+](=O)[O-])cnc1C (configuration not stated)			3.84 µM	3.95 µM
Cc1ncc([N+](=O)[O-])n1CC(=O)N[C@@H](Cc1ccccc1)C(=O)O			22.2 µM	23.4 µM
Cc1ncc([N+](=O)[O-])n1CC(=O)N[C@@H](Cc1c[nH]c2ccccc12)C(=O)O			18 µM	17.2 µM
Cc1ncc([N+](=O)[O-])n1CC(=O)N[C@@H](Cc1cnc[nH]1)C(=O)O			17.2 µM	16.2 µM
CCOC(=O)[C@H](C)NC(=O)Cn1c([N+](=O)[O-])cnc1C	69.7 µM	72.2 µM	2.18 µM	2.1 µM
COC(=O)[C@H](Cc1ccccc1)NC(=O)Cn1c([N+](=O)[O-])cnc1C			44.4 µM	22.1 µM
Cc1ncc([N+](=O)[O-])n1CCO [METRONIDAZOLE]	869 µM	903 µM	5.17 µM	4.4 µM
